ChEMBL document CHEMBL1255489, “Low prevalence of fks1 hot spot 1 mutations in a worldwide collection of Candida strains” (2010)
Values after ≈ are worked out from the molar mass of the structure shown. Starred links: 1 amine or outer side, 2 acyl side, 3 side chain; linkers in the order of their positions; H or OH if unused. Positions of bridges follow the written chain, without caps; N, C: chain ends. Non-standard residues stand in square brackets, D forms with d. Residues, ends and D or L forms follow the SMILES beside them. *: point of attachment. hTyr(3S-OH,4S-OH,3'-OSO3H) = N[C@H](C(=O)O)[C@H](O)[C@@H](O)c1ccc(O)c(OS(=O)(=O)O)c1; pTerphenylCO(4''-OnC5H11) = CCCCCOc1ccc(-c2ccc(-c3ccc(C(=O)*)cc3)cc2)cc1; Orn(4R-OH,5R-OH) = O=C([C@H](C[C@@H](O)[C@@H](O)N[*:3])N[*:1])[*:2]; hTyr(3S-OH,4S-OH) = N[C@H](C(=O)O)[C@H](O)[C@@H](O)c1ccc(O)cc1; Pro(3S-OH,4S-Me) = C[C@H]1CN[C@H](C(=O)O)[C@H]1O; X1 = CCCCCOc1ccc(-c2cc(-c3ccc(C(=O)*)cc3)no2)cc1; Gln(3R-OH) = NC(=O)C[C@@H](O)[C@H](N)C(=O)O; Hyp = O=C(O)[C@@H]1C[C@@H](O)CN1

Tests used:
Assay type in all cases: functional
[1] = system: Candida tropicalis; assay: Antifungal activity against Candida tropicalis isolate 4748 expressing fks1 F641S mutant after 24 to 48 hrs by broth microdilution method
[2] = system: Nakaseomyces glabratus; assay: Antifungal activity against Candida glabrata isolate 4690 expressing fks2 L644W mutant after 24 to 48 hrs by broth microdilution method
[3] = system: Candida tropicalis; assay: Antifungal activity against Candida tropicalis expressing fks1 L644W mutant by EUCAST method
[4] = system: Candida; assay: Antifungal activity against Candida species after 24 to 48 hrs by broth microdilution method
[5] = system: Candida albicans; assay: Antifungal activity against Candida albicans after 24 to 48 hrs by broth microdilution method
[6] = system: Nakaseomyces glabratus; assay: Antifungal activity against Candida glabrata isolate 4708 expressing fks1 S645P mutant after 24 to 48 hrs by broth microdilution method
[7] = system: Nakaseomyces glabratus; assay: Antifungal activity against Candida glabrata after 24 to 48 hrs by broth microdilution method
[8] = system: Nakaseomyces glabratus; assay: Antifungal activity against Candida glabrata isolate 4707 expressing fks2 S645P mutant after 24 to 48 hrs by broth microdilution method
[9] = system: Candida albicans; assay: Antifungal activity against Candida albicans expressing fks1 F641S mutant after 24 to 48 hrs by broth microdilution method
[10] = system: Pichia kudriavzevii; assay: Antifungal activity against Candida krusei after 24 to 48 hrs by broth microdilution method
[11] = system: Nakaseomyces glabratus; assay: Antifungal activity against Candida glabrata isolate 4720 expressing fks2 S645P mutant after 24 to 48 hrs by broth microdilution method
[12] = system: Candida albicans; assay: Antifungal activity against Candida albicans isolate 4700 expressing fks1 F641Y mutant after 24 to 48 hrs by broth microdilution method
[13] = system: Pichia kudriavzevii; assay: Antifungal activity against Candida krusei ATCC 6258 expressing fks1 L644W mutant by EUCAST method
[14] = system: Candida tropicalis; assay: Antifungal activity against Candida tropicalis isolate 4780 expressing fks1 F641S mutant after 24 to 48 hrs by broth microdilution method

SMILES | MIC [1] [µg/mL] | MIC [2] [µg/mL] | MIC [3] [µg/mL] | MIC [4] [µg/mL] | MIC [5] [µg/mL] | MIC [6] [µg/mL] | MIC [7] [µg/mL] | MIC [8] [µg/mL] | MIC [9] [µg/mL] | MIC [10] [µg/mL] | MIC [11] [µg/mL] | MIC [12] [µg/mL] | MIC [13] [µg/mL] | MIC [14] [µg/mL]
CC[C@H](C)C[C@H](C)CCCCCCCCC(=O)N[C@H]1C[C@@H](O)[C@@H](NCCN)NC(=O)[C@@H]2[C@@H](O)CCN2C(=O)[C@H]([C@H](O)CCN)NC(=O)[C@H]([C@H](O)[C@@H](O)c2ccc(O)cc2)NC(=O)[C@@H]2C[C@@H](O)CN2C(=O)[C@H]([C@@H](C)O)NC1=O [CASPOFUNGIN] | 4 (≈ 3.66 µM) | 0.25 (≈ 0.229 µM) | 1 (≈ 0.915 µM) | ≤ 0.008 | ≤ 0.06 | ≥ 8 | ≤ 0.06 | 8 (≈ 7.32 µM) | 2 (≈ 1.83 µM) | 1 (≈ 0.915 µM) | ≥ 8 | 1 (≈ 0.915 µM) | 8 (≈ 7.32 µM) | 4 (≈ 3.66 µM)
CCCCCOc1ccc(-c2cc(-c3ccc(C(=O)N[C@H]4C[C@@H](O)[C@@H](O)NC(=O)[C@@H]5[C@@H](O)[C@@H](C)CN5C(=O)[C@H]([C@H](O)CC(N)=O)NC(=O)[C@H]([C@H](O)[C@@H](O)c5ccc(O)c(OS(=O)(=O)O)c5)NC(=O)[C@@H]5C[C@@H](O)CN5C(=O)[C@H]([C@@H](C)O)NC4=O)cc3)no2)cc1 [MICAFUNGIN] (X1-[Orn(4R-OH,5R-OH)]T[Hyp][hTyr(3S-OH,4S-OH,3'-OSO3H)][Gln(3R-OH)][Pro(3S-OH,4S-Me)]; lactam 1-C) | 0.5 (≈ 0.394 µM) | 0.06 (≈ 0.0472 µM) | – | – | ≤ 0.06 | 4 (≈ 3.15 µM) | ≤ 0.06 | 2 (≈ 1.57 µM) | 0.5 (≈ 0.394 µM) | – | 4 (≈ 3.15 µM) | 0.25 (≈ 0.197 µM) | – | 0.5 (≈ 0.394 µM)
CCCCCOc1ccc(-c2ccc(-c3ccc(C(=O)N[C@H]4C[C@@H](O)[C@@H](O)NC(=O)[C@@H]5[C@@H](O)[C@@H](C)CN5C(=O)[C@H]([C@@H](C)O)NC(=O)[C@H]([C@H](O)[C@@H](O)c5ccc(O)cc5)NC(=O)[C@@H]5C[C@@H](O)CN5C(=O)[C@H]([C@@H](C)O)NC4=O)cc3)cc2)cc1 [ANIDULAFUNGIN] ({pTerphenylCO(4''-OnC5H11)}-[Orn(4R-OH,5R-OH)]T[Hyp][hTyr(3S-OH,4S-OH)]T[Pro(3S-OH,4S-Me)]; lactam 1-C) | 1 (≈ 0.877 µM) | 0.12 (≈ 0.105 µM) | – | – | ≤ 0.12 | 4 (≈ 3.51 µM) | ≤ 0.12 | 4 (≈ 3.51 µM) | 0.12 (≈ 0.105 µM) | 0.06 (≈ 0.0526 µM) | 4 (≈ 3.51 µM) | 0.12 (≈ 0.105 µM) | – | 1 (≈ 0.877 µM)
